Measured values as given in US4604239A, “Antibiotics” (Eli Lilly and Company, priority 1985, dated 1986).
≈ marks a conversion by molar mass, not a printed value. Like-named read-outs stand apart in the source and are kept apart here.

Assays:
[1] = system: Staphylococcus aureus; experiment: agar-dilution MIC; format: cell-based
[2] = system: Hemophilus influenzae; experiment: agar-dilution MIC; format: cell-based
[3] = system: Bacteroides fragilis; experiment: agar-dilution MIC; format: cell-based
Description: (§1) The agar-dilution procedure described by the International Collaborative study (ICS) group was used to determine the minimum inhibitory concentrations (MIC's).

[4] = system: Staphylococcus epidermidis; experiment: agar-dilution MIC; format: cell-based
Description: as §1

[5] = system: Streptococcus pneumoniae; experiment: agar-dilution MIC; format: cell-based
Description: as §1

[6] = system: Streptococcus pyogenes; experiment: agar-dilution MIC; format: cell-based; conditions: Streptococcus pyogenes C203; Table 17
Description: as §1

[7] = system: Streptococcus sp. (Group D); experiment: agar-dilution MIC; format: cell-based
Description: as §1

[8] = system: Bacteroides corrodens; experiment: agar-dilution MIC; format: cell-based; conditions: B. corrodens 1874; 24-hour; Table 12
Description: (§2) The A41030 antibiotics, factors A, B, and C, are active against a genus of anaerobic bacteria identified as Bacteroides sp., the 24-hour MIC values being determined by the agar-dilution method, and are set forth in Table 12, which follows.

[9] = system: Bacteroides vulgatis; experiment: agar-dilution MIC; format: cell-based; conditions: B. vulgatis 1563; 24-hour; Table 12
Description: as §2

[10] = system: Bacteroides thetaiotaomicron; format: cell-based
Description: as §1

[11] = system: Clostridium difficile; format: cell-based
[12] = system: Clostridium perfringens; format: cell-based; conditions: Clostridium perfringens 81; Table 14
[13] = system: Clostridium septicum; experiment: agar-dilution MIC; format: cell-based; conditions: Clostridium septicum 1128; Table 14
[14] = system: Peptostreptococcus anaerobius; experiment: agar-dilution MIC; format: cell-based
[15] = system: Bacteroides melaninogenicus; experiment: agar-dilution MIC; format: cell-based; conditions: Bacteroides melaninogenicus 2736; Table 14
[16] = system: Fusobacterium symbiosum; experiment: agar-dilution MIC; format: cell-based; conditions: Fusobacterium symbiosum 1470; Table 14
[17] = system: Fusobacterium necrophorum; experiment: agar-dilution MIC; format: cell-based; conditions: Fusobacterium necrophorum 6054A; Table 14
[18] = system: Staph. aureus; experiment: experimental bacterial infection in mice; format: in vivo; conditions: two doses subcutaneously
Experimental: All of the A41030 factors tested have shown in vivo antimicrobial activity against experimental bacterial infections. When two doses of test compound were administered subcutaneously to mice in illustrative infections, the activity observed is measured as an ED50 value [effective dose in mg./kg. to protect fifty percent of the test animals: See Warren Wick, et al., J. Bacteriol. 81, 233-235 (1961)].

[19] = system: S. pyogenes; experiment: experimental bacterial infection in mice; format: in vivo
[20] = electrometric titration; format: physicochemical; conditions: electrometric titration in 66% dimethylformamide in water
Description: Antibiotic A41030 factor A is a white, crystalline solid.

[21] = solubility; format: physicochemical
[22] = system: Peptococcus prevoti; experiment: agar-dilution MIC; format: cell-based

With `N[C@H]1C(=O)N[C@@H]2Cc3ccc(c(Cl)c3)Oc3cc4cc(c3O)Oc3ccc(cc3Cl)[C@@H](O)[C@@H]3NC(=O)C(NC(=O)[C@@H]4NC(=O)[C@@H](NC2=O)c2cc(O)cc(c2)Oc2cc1ccc2O)c1ccc(O)c(c1)-c1c(O)cc(O)cc1[C@@H](C(=O)O)NC3=O` [A41030 factor B] the MIC ([1]; Staphylococcus aureus 3055, end point after 24 hours, Table 18) was 0.06 µg/mL (≈ 0.05 µM), the MIC ([1]; Staphylococcus aureus V138, end point after 24 hours, Table 18) was 0.06 µg/mL (≈ 0.05 µM) and the MIC ([1]; in µg/mL) was 0.25. For the same compound, the MIC ([2]; Haemophilus influenzae 76, end point after 24 hours, Table 18) was 4 µg/mL (≈ 3.34 µM), the MIC ([2]; Haemophilus influenzae 251, Table 17) was 2 µg/mL (≈ 1.67 µM) and the MIC ([2]; Haemophilus influenzae 312, end point after 24 hours, Table 18) was 4 µg/mL (≈ 3.34 µM). The MIC ([2]; Haemophilus influenzae 4842, end point after 24 hours, Table 18) was 4 µg/mL (≈ 3.34 µM), the MIC ([2]; Haemophilus influenzae 16836, end point after 24 hours, Table 18) was 4 µg/mL (≈ 3.34 µM) and the MIC ([2]; Haemophilus influenzae Bond, end point after 24 hours, Table 18) was 4 µg/mL (≈ 3.34 µM). It also gave an MIC ([2]; Haemophilus influenzae Brun, Table 17) of 8 µg/mL (≈ 6.67 µM), an MIC ([2]; Haemophilus influenzae C.L., end point after 24 hours, Table 18) of 8 µg/mL (≈ 6.67 µM) and an MIC ([2]; Haemophilus influenzae Mx366, end point after 24 hours, Table 18) of 4 µg/mL (≈ 3.34 µM). It also gave an MIC ([2]; Haemophilus influenzae Mx371, end point after 24 hours, Table 18) of 4 µg/mL (≈ 3.34 µM), an MIC ([3]; B. fragilis 2, 24-hour, Table 12) of 32 µg/mL (≈ 26.7 µM) and an MIC ([3]; B. fragilis 9, 24-hour, Table 12) of 32 µg/mL (≈ 26.7 µM). The MIC ([3]; B. fragilis 103, 24-hour, Table 12) was 32 µg/mL (≈ 26.7 µM), the MIC ([3]; B. fragilis 104, 24-hour, Table 12) was 32 µg/mL (≈ 26.7 µM) and the MIC ([3]; B. fragilis 106, 24-hour, Table 12) was 32 µg/mL (≈ 26.7 µM). It also gave an MIC ([3]; B. fragilis 107, 24-hour, Table 12) of 32 µg/mL (≈ 26.7 µM), an MIC ([3]; B. fragilis 108, 24-hour, Table 12) of 32 µg/mL (≈ 26.7 µM) and an MIC ([3]; B. fragilis 110, 24-hour, Table 12) of 64 µg/mL (≈ 53.4 µM). For the same compound, the MIC ([3]; B. fragilis 111, 24-hour, Table 12) was 32 µg/mL (≈ 26.7 µM), the MIC ([3]; B. fragilis 112, 24-hour, Table 12) was 32 µg/mL (≈ 26.7 µM) and the MIC ([3]; B. fragilis 113, 24-hour, Table 12) was 32 µg/mL (≈ 26.7 µM). The MIC ([3]; B. fragilis 1451, 24-hour, Table 12) was 64 µg/mL (≈ 53.4 µM), the MIC ([3]; B. fragilis 1470, 24-hour, Table 12) was 64 µg/mL (≈ 53.4 µM) and the MIC ([3]; B. fragilis 1877, 24-hour, Table 12) was 32 µg/mL (≈ 26.7 µM). It also gave an MIC ([3]; B. fragilis 9032, 24-hour, Table 12) of 32 µg/mL (≈ 26.7 µM), an MIC ([3]; Bacteroides fragilis 111, Table 14) of 64 µg/mL (≈ 53.4 µM) and an MIC ([3]; Bacteroides fragilis 1877, Table 14) of 32 µg/mL (≈ 26.7 µM). For the same compound, the MIC ([3]; Bacteroides fragilis 1936B, Table 14) was 32 µg/mL (≈ 26.7 µM), the MIC ([4]; Staphylococcus epidermidis 219, end point after 24 hours, Table 18) was 0.03 µg/mL (≈ 0.025 µM) and the MIC ([4]; Staphylococcus epidermidis 269, end point after 24 hours, Table 18) was 0.03 µg/mL (≈ 0.025 µM). For the same compound, the MIC ([4]; Staphylococcus epidermidis 270, end point after 24 hours, Table 18) was 0.06 µg/mL (≈ 0.05 µM), the MIC ([4]; Staphylococcus epidermidis 285, end point after 24 hours, Table 18) was 0.03 µg/mL (≈ 0.025 µM) and the MIC ([4]; Staphylococcus epidermidis EPI2, Table 17) was 0.5 µg/mL (≈ 0.417 µM). It also gave an MIC ([5]; Streptococcus pneumoniae B1-438, end point after 24 hours, Table 18) of 0.5 µg/mL (≈ 0.417 µM), an MIC ([5]; Streptococcus pneumoniae Park I, Table 17) of 0.5 µg/mL (≈ 0.417 µM) and an MIC [6] of 0.25 µg/mL (≈ 0.209 µM). It also gave an MIC ([7]; Streptococcus sp. Group D 2041, end point after 24 hours, Table 18) of 0.5 µg/mL (≈ 0.417 µM), an MIC ([7]; Streptococcus sp. Group D 2058, end point after 24 hours, Table 18) of 0.5 µg/mL (≈ 0.417 µM) and an MIC ([7]; Streptococcus sp. Group D 8043, end point after 24 hours, Table 18) of 0.25 µg/mL (≈ 0.209 µM). It also gave an MIC ([7]; Streptococcus sp. Group D 9901, end point after 24 hours, Table 18) of 1 µg/mL (≈ 0.834 µM), an MIC ([7]; Streptococcus sp. Group D 9960, Table 17) of 1 µg/mL (≈ 0.834 µM) and an MIC ([7]; Streptococcus sp. Group D 9960, end point after 24 hours, Table 18) of 0.5 µg/mL (≈ 0.417 µM). The MIC ([7]; Streptococcus sp. Group D 12253F, end point after 24 hours, Table 18) was 0.5 µg/mL (≈ 0.417 µM), the MIC ([7]; Streptococcus sp. Group D Mx161, end point after 24 hours, Table 18) was 0.25 µg/mL (≈ 0.209 µM) and the MIC ([7]; Streptococcus sp. Group D X66, Table 17) was 1 µg/mL (≈ 0.834 µM). For the same compound, the MIC ([7]; Streptococcus sp. Group D X66, end point after 24 hours, Table 18) was 0.25 µg/mL (≈ 0.209 µM), the MIC [8] was 32 µg/mL (≈ 26.7 µM) and the MIC [9] was 32 µg/mL (≈ 26.7 µM). It also gave an MIC ([10]; B. thetaiotaomicron 1438, 24-hour, Table 12) of 32 µg/mL (≈ 26.7 µM), an MIC ([10]; Bacteroides thetaiotaomicron 1438, Table 14) of 32 µg/mL (≈ 26.7 µM) and an MIC ([11]; Clostridium difficile 78, Table 16) of 0.5 µg/mL (≈ 0.417 µM). It also gave an MIC ([11]; Clostridium difficile 107B, Table 16) of 0.5 µg/mL (≈ 0.417 µM), an MIC ([11]; Clostridium difficile 111F, Table 16) of 1.0 µg/mL (≈ 0.834 µM) and an MIC ([11]; Clostridium difficile 1153, Table 16) of 1.0 µg/mL (≈ 0.834 µM). For the same compound, the MIC ([11]; Clostridium difficile 2634, Table 16) was 1.0 µg/mL (≈ 0.834 µM), the MIC ([11]; Clostridium difficile 2994, Table 14) was 32 µg/mL (≈ 26.7 µM) and the MIC ([11]; Clostridium difficile 3424-5B, Table 16) was 1.0 µg/mL (≈ 0.834 µM). It also gave an MIC ([11]; Clostridium difficile 3816, Table 16) of 1.0 µg/mL (≈ 0.834 µM), an MIC ([11]; Clostridium difficile 3950D, Table 16) of 1.0 µg/mL (≈ 0.834 µM) and an MIC ([11]; Clostridium difficile 6890, Table 16) of 1.0 µg/mL (≈ 0.834 µM). The MIC ([11]; Clostridium difficile 8484, Table 16) was 1.0 µg/mL (≈ 0.834 µM), the MIC ([11]; Clostridium difficile A-194, Table 16) was 1.0 µg/mL (≈ 0.834 µM) and the MIC ([11]; Clostridium difficile A-195, Table 16) was 1.0 µg/mL (≈ 0.834 µM). It also gave an MIC ([11]; Clostridium difficile A-196, Table 16) of 1.0 µg/mL (≈ 0.834 µM), an MIC ([11]; Clostridium difficile A-279, Table 16) of 1.0 µg/mL (≈ 0.834 µM) and an MIC ([11]; Clostridium difficile A-280, Table 16) of 0.5 µg/mL (≈ 0.417 µM). The MIC ([11]; Clostridium difficile A-281, Table 16) was 1.0 µg/mL (≈ 0.834 µM), the MIC ([11]; Clostridium difficile WAL-2112, Table 16) was 1.0 µg/mL (≈ 0.834 µM) and the MIC ([11]; Clostridium difficile WAL-3657, Table 16) was 1.0 µg/mL (≈ 0.834 µM). For the same compound, the MIC ([11]; Clostridium difficile WAL-4268, Table 16) was 0.5 µg/mL (≈ 0.417 µM), the MIC [12] was 0.5 µg/mL (≈ 0.417 µM) and the MIC [13] was 4 µg/mL (≈ 3.34 µM). It also gave an MIC ([14]; Peptostreptococcus anaerobius 1428, Table 14) of at most 0.25 µg/mL, an MIC ([14]; Ps. anaerobius 8, Table 15) of 0.25 µg/mL (≈ 0.209 µM) and an MIC ([14]; Ps. anaerobius 52, Table 15) of 0.5 µg/mL (≈ 0.417 µM). It also gave an MIC ([14]; Ps. anaerobius 59, Table 15) of 0.25 µg/mL (≈ 0.209 µM), an MIC ([14]; Ps. anaerobius 1418, Table 15) of 0.06 µg/mL (≈ 0.05 µM) and an MIC ([14]; Ps. anaerobius 1428, Table 15) of 0.25 µg/mL (≈ 0.209 µM). The MIC ([14]; Ps. anaerobius 1451, Table 15) was 0.25 µg/mL (≈ 0.209 µM), the MIC [15] was 4 µg/mL (≈ 3.34 µM) and the MIC [16] was 1.0 µg/mL (≈ 0.834 µM). For the same compound, the MIC [17] was 8 µg/mL (≈ 6.67 µM), the ED50 [18] was under 0.43 mg/kg and the ED50 ([19]; S. pyogenes infection in mice, two doses subcutaneously) was 1.4 mg/kg. The “in vivo oral activity” value ([19]; against S. pyogenes in mice, oral) was over 300 mg./kg. X 2, the “possibly additional pKa's” value [20] was over 10 and the “solubility (solvents)” value [21] was “soluble in the same solvents as factor A”. The MIC ([22]; Pc. prevoti 1281, Table 15) was 0.5 µg/mL (≈ 0.417 µM) and the MIC ([22]; Peptococcus prevoti 1281, Table 14) was at most 0.25 µg/mL.
